Assay [1] has as its target T1, METTL3 (Homo sapiens, UniProt Q86U44).
T1 construct: METTL3–14 degradation up to 70% of the endogenous level; endogenous in cells; host or cells: MOLM-13, PC3, DU145
Put plainly: Cellular degradation assay (Western blot), METTL3 in MOLM-13. Type of assay: cell-based. Conditions: for MOLM-13 West. blot at 24h 2 μM comp conc. Degradation (%) of METTL3: MOLM-13, 24 h, 2 μM compound. The gist of the method:
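Cells in RPMI 1640 with 10% FBS were treated with PROTACs or 0.1% DMSO for 24h at 37 °C. METTL3 and METTL14 levels in RIPA lysates were read by Western blot with infrared secondary detection and densitometry, normalised against GAPDH or β-actin.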
In general terms: A western blot detects proteins with antibodies after separation by electrophoresis.

Assay [2] concerns the target T1, METTL3. Briefly: Cellular degradation assay (Western blot) in DU145. Type of assay: cell-based. The following applies: DU145, 2 μM, 24 h. The procedure:
(§1) MOLM-13, NOMO-1, THP-1, Kasumi-1, PC3, and DU145 cell lines were obtained from DSMZ-German Collection of Microorganisms and Cell Cultures GmbH. Cells were cultured in RPMI 1640 medium (11875093, Thermo Fisher Scientific) containing 10% FBS (16140071, Thermo Fisher Scientific) and 1% penicillin-streptomycin (15140122, Thermo Fisher Scientific) in 5% CO2 at 37 °C in a humidified incubator, with maintained cell densities at 0.5–1 × 10^6 cells/mL. All cell lines were tested negative for mycoplasma contamination (PCR-based assay by Microsynth, Switzerland).
(§2) METTL3 (and METTL14) protein degradation was monitored by Western blot. Cells were treated with the indicated concentration of PROTACs or DMSO control (0.1% (v/v)) for 24h, 37 °C with 5% CO2. Samples were then collected and lysed with RIPA buffer with added protease inhibitors (11697498001, Roche). After SDS-PAGE, proteins were transferred to a nitrocellulose membrane, blocked (with 5% milk, 0.5% BSA in TBST buffer), and incubated overnight with primary antibodies. The following antibodies were used: GAPDH (no. 2118, Cell Signaling, 1:4000), β-actin (ab8226, Abcam, 1:2000), METTL3 (ab195352, Abcam, 1:1000), and METTL14 (ab220031, Abcam, 1:1000). Membranes were scanned using an LI-COR Odyssey DLx imager after incubation with appropriate secondary antibodies (antimouse IgG IRDye 680RD (926–68072, LI-COR, 1:10000) and goat anti-Rabbit IgG IRDye 800CW (926–32211, LI-COR, 1:10000)). Densitometry was performed in Image Studio Lite software and analyzed in GraphPad Prism 9.

In assay [3] the target is T2, METTL3-14 (Homo sapiens, UniProt Q86U44). Briefly: Cellular degradation assay (Western blot) in KASUMI-1. Type of assay: cell-based. On the set-up: METTL3–14 degradation up to 70% of the endogenous level; endogenous in cells; host or cells: MOLM-13, KASUMI-1, THP-1, NOMO-1. Conditions: KASUMI-1, 2 μM, 24 h. The protocol: as §1, §2
Target sequence in this assay (Q86U44 2-580 limits assumed): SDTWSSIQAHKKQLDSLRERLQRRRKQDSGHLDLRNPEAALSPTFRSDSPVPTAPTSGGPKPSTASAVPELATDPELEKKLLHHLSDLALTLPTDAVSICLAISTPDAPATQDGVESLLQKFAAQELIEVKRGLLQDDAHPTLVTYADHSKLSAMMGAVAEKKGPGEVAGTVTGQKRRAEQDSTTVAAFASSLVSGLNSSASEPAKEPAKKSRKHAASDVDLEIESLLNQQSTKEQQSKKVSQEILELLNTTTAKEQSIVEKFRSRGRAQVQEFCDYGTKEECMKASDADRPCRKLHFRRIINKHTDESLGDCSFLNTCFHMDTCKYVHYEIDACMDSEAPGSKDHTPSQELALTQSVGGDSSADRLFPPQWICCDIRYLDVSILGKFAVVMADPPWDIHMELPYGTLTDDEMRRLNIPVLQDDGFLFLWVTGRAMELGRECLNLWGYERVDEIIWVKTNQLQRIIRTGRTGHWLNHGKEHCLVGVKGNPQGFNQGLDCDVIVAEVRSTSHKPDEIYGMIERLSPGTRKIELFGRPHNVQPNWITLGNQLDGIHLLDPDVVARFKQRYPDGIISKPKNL
Target sequence in this assay (Q9HCE5 whole entry partner): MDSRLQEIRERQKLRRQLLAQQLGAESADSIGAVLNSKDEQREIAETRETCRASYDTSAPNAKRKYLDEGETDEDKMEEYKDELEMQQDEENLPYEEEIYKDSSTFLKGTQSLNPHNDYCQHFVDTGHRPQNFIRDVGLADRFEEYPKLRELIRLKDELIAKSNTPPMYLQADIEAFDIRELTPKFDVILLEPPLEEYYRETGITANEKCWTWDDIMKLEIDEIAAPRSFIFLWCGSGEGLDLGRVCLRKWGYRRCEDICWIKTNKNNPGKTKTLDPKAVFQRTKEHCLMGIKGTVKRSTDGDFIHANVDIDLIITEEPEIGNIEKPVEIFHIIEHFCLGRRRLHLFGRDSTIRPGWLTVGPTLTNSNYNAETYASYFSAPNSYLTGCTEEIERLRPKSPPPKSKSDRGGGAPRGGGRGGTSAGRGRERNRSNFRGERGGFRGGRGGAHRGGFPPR
Assay [4] deals with T3, ternary complex CRBN/PROTAC/METTL3–14 (Homo sapiens, UniProt Q86U44+Q96SW2).
T3 construct: methyltransferase domains (MTD) of METTL3 (residues 354–580); His6 (N, cleaved yes); made in house; host or cells: METTL3-MTD/METTL14-MTD: baculovirus/Sf9; CRBN-TBD: E. coli Rosetta (DE3), co-expressed with BirA
Put plainly: FRET-based ternary complex formation assay (TCFA). Format: binding. The following applies: for TCFA amplitude (mean ± SEM): Hook curve amplitude, fraction of the maximum of compound 16; for ECmax (nM) ± SD: PROTAC concentration at the maximum of the signal in the TCFA; for ECmax: TCFA, peak of the Hook curve. The gist of the method:
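HTRF/TR-FRET measurement of PROTAC-induced complex between GST-tagged METTL3–14 and biotinylated CRBN^TBD-Avi (10 nM final) with 0.8 nM Eu^3+ anti-GST antibody, in 50 mM HEPES pH 7.5, 150 mM NaCl, 0.1% BSA, 100 mM KF. Emission ratio used; ECmax and Hook-curve amplitude taken from Gaussian fit or highest-signal data point.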

Assay [5] has as its target T2, METTL3-14. Briefly: biochemical. Also noted: with the full-length complex, the recombinant complex construct pFastBacDual-StrepII-GFP-TEV-METTL3-His-TEV-METTL14 was expressed; StrepII (N); GFP (N); TEV site (N); made in house; host or cells: baculovirus/Sf9 insect cells. The following applies: inhibition of catalytic activity of METTL3-14, binary FRET assay. The gist of the method:
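Full-length human METTL3–METTL14 complex (StrepII-GFP-METTL3-His/METTL14) expressed in baculovirus/Sf9 cells and purified. Inhibition of METTL3 methyltransferase activity measured in a homogeneous time-resolved fluorescence (HTRF) enzyme assay; IC50 determined.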
Target sequence in this assay (Q86U44 whole entry): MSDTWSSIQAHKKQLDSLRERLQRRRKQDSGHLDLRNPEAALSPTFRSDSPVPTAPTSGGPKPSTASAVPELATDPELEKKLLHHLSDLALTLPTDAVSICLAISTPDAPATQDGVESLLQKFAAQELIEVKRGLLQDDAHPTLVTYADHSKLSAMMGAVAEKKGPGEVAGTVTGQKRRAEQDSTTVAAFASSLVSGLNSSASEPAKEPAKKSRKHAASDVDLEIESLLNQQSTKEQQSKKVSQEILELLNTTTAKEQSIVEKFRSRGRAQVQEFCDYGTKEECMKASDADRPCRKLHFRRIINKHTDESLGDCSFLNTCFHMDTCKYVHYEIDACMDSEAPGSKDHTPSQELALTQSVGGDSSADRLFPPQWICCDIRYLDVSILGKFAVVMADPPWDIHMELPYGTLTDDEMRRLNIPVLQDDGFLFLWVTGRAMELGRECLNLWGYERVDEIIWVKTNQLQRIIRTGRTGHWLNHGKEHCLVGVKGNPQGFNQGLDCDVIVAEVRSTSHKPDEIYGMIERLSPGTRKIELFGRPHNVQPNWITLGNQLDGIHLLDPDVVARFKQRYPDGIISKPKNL
Target sequence in this assay (Q9HCE5 whole entry, further chain): as the sequence (Q9HCE5 whole entry partner) above

The text below walks through data of PMC10900215 (JACS Au, 2024).

Structures are written as SMILES. Where “and” joins values, the source holds several entries; their conditions need not be identical. Equal values may be shown once.

T3 sequence (Q86U44 354-580): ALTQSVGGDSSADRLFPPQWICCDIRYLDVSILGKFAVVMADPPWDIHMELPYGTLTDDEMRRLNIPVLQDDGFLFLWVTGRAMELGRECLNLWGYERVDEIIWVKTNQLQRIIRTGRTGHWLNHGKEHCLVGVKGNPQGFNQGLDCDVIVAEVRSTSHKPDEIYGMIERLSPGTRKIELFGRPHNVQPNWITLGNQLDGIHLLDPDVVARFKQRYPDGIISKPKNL
T3 sequence (Q9HCE5 107-395 partner limits assumed): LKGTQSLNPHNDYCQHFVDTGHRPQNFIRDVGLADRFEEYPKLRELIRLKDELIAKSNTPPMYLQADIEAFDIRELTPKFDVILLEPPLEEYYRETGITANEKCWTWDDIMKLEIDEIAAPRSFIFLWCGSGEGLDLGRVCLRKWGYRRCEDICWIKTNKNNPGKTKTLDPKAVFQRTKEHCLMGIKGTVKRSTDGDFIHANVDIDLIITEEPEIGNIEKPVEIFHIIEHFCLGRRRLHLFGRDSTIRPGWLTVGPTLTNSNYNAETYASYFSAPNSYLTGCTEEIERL
T3 sequence (Q96SW2 318-442): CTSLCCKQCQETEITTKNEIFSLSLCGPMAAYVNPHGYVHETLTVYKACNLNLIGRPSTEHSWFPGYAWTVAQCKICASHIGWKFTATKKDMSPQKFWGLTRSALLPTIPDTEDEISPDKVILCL
T1 sequence (Q86U44 2-580 limits assumed): as the sequence (Q86U44 2-580 limits assumed) above
T1 sequence (Q9HCE5 whole entry partner): as the sequence (Q9HCE5 whole entry partner) above

Usually IC50 stands for the concentration needed to halve the response being measured. For the compound `CC1(C)CCN(Cc2cc(F)c(N3CC(=O)NC4(CCN(c5cc(NCc6cccc(CNC(=O)CCCNc7cccc8c7C(=O)N(C7CCC(=O)NC7=O)C8=O)c6)ncn5)CC4)C3)cc2F)CC1` (centres unmarked) [Compound 14], the “METTL3 reduction at highest effect in concentration dependence” value in assay [1] (MOLM-13, 1 μM) was “around 50%”. Also, the “MOLM-13 West. blot at 24h 2 μM comp conc. Degradation (%) of METTL3” value (“MOLM-13 West. blot … (%) of METTL3” for short) in assay [1] is 52% and 52 ± 8%. In addition, the “effect on METTL3 level” value in assay [2] is recorded as “only a minor effect”. In addition, the “degradation of both METTL3 and METTL14 relative to MOLM-13” value in assay [3] is “higher degradation”. Further, in assay [4], the “TCFA amplitude (mean ± SEM)” value worked out at 1.2 ± 0.0, the “ECmax (nM) ± SD” value is listed as 250 ± 0 nM and the ECmax entry is on record as “submicromolar”. Besides, the IC50 in assay [5] is 11 ± 1 nM.

As for `CC1(C)CCN(Cc2cc(F)c(N3CC(=O)NC4(CCN(c5cc(NCc6cccc(CNC(=O)CCCCCCCCCCn7cc(CNc8cccc9c8C(=O)N(C8CCC(=O)NC8=O)C9=O)nn7)c6)ncn5)CC4)C3)cc2F)CC1` (centres unmarked) [Compound 20], the “MOLM-13 West. blot … (%) of METTL3” value in assay [1] was 42% and 42 ± 13%. For the same compound, the “effect on METTL3 level” value in assay [2] is recorded as “only a minor effect”. For the same compound, the “degradation of both METTL3 and METTL14 relative to MOLM-13” value in assay [3] is reported as “higher degradation”. In addition, in assay [4], the “TCFA amplitude (mean ± SEM)” value turned out to be 0.6 ± 0.0, the “ECmax (nM) ± SD” value was 860 ± 240 nM and the ECmax entry was “submicromolar”. The IC50 in assay [5] turned out to be 200 ± 30 nM.

For `CC1(C)CCN(Cc2cc(F)c(N3CC(=O)NC4(CCN(c5cc(NCC6CCN(C(=O)CCCNc7cccc8c7C(=O)N(C7CCC(=O)NC7=O)C8=O)CC6)ncn5)CC4)C3)cc2F)CC1` (centres unmarked) [Compound 22], the “MOLM-13 West. blot … (%) of METTL3” value in assay [1] was 46% and 46 ± 6%. For the same compound, the “effect on METTL3 level” value in assay [2] is “only a minor effect”. In addition, the “degradation of both METTL3 and METTL14 relative to MOLM-13” value in assay [3] is “higher degradation”. Moreover, in assay [4], the “TCFA amplitude (mean ± SEM)” value came out at 1.1 ± 0.1 and the “ECmax (nM) ± SD” value was 190 ± 90 nM. Besides, the IC50 in assay [5] was determined as 11 ± 1 nM.

Consider `CC1(C)CCN(Cc2cc(F)c(N3CC(=O)NC4(CCN(c5cc(NCC6CCN(C(=O)CCCCCNc7cccc8c7C(=O)N(C7CCC(=O)NC7=O)C8=O)CC6)ncn5)CC4)C3)cc2F)CC1` (centres unmarked) [Compound 24], for which the “MOLM-13 West. blot … (%) of METTL3” value in assay [1] is 36% and 36 ± 9%. Besides, the “effect on METTL3 level” value in assay [2] was “only a minor effect”. Further, the “degradation of both METTL3 and METTL14 relative to MOLM-13” value in assay [3] is listed as “higher degradation”. In addition, in assay [4], the “TCFA amplitude (mean ± SEM)” value came to 1.2 ± 0.0, the “ECmax (nM) ± SD” value was 470 ± 80 nM and the ECmax entry is “submicromolar”. Besides, in assay [5], the half-inhibitory concentration (IC50) was found to be 58 ± 12 nM.

`CC1(C)CCN(Cc2cc(F)c(N3CC(=O)NC4(CCN(c5cc(NCCN6CCN(C(=O)CCCCCNc7cccc8c7C(=O)N(C7CCC(=O)NC7=O)C8=O)CC6)ncn5)CC4)C3)cc2F)CC1` (centres unmarked) [Compound 30]: the “effect on METTL3 level” value in assay [2] is given as “only a minor effect”. Moreover, in assay [3], the “degradation of both METTL3 and METTL14 relative to MOLM-13” value is reported as “higher degradation”; the “degradation of the POI” value is reported as 70%. Moreover, in assay [4], the “TCFA amplitude (mean ± SEM)” value was found to be 1.0 ± 0.1, the “ECmax (nM) ± SD” value came out at 70 ± 30 nM and the ECmax entry is given as “submicromolar”. In addition, in assay [5], the IC50 was found to be 27 ± 6 nM.
